Patent US20080306114A1, “Human G Protein-Coupled Receptor and Modulators Thereof for the Treatment of Hyperglycemia and Related Disorders” (Arena Pharmaceuticals, Inc, priority 2004, published 2008)
“Also recorded” adds a separate entry of the source.

Key:
[1] = system: Mock transfected HEK293 cells (empty pCMV vector); assay: Whole-cell cyclase Flashplate cAMP assay, Mock transfected HEK293 cells; format: cell-based, human; conditions: serially diluted compound, 1 hour
Experimental: (§1) HEK 293 cells obtained from ATCC were used for all assays. Culture media consisted of […] of DMEM supplemented with 10% fetal bovine serum (Gibco, BRL). Cyclic AMP measurements were determined using the Adenylyl Cyclase Activation Flashplate® Assay with direct cAMP [^125I] Detection system.
(§2) HEK 293 cells (5×10^5 cells/ml) were plated in 15 cm dishes. […] Briefly, transfection mixture consisting of OptiMEM (Gibco, BRL) and FuGENE 6 reagent were mixed together and allow to incubate for 5 minutes at room temperature. Transfection reagent was added drop-wise into a separate tube containing 2 μg of endogenous human RUP43 receptor plasmid (Tranfected) or 2 μg of empty pCMV vector (Mock) and allowed to incubate for 15 minutes at room temperature. The DNA/transfection mixture was added drop-wise to each perspective plate and incubated over night in a humidified incubator maintained at 37° C., 95/5% […]. The next day, the media was replaced with normal growth media and the cells were incubated over night.
(§3) On Day 3, the cells were rinsed once with PBS and dislodged from the plate using a nonenzymatic cell-dissociation buffer (Gibco, BRL) and resuspended in assay stimulation Buffer® Perkin Elmer) at a density of 2×10^6 cell/ml for measurement of cAMP. […] At the end of the 2 hour incubation, the plate was aspirated and cAMP levels were determined using Wallac 1450 microbeta counter.

endogenous human RUP43 [2] = target: T1, endogenous human RUP43 (Homo sapiens, UniProt Q8TDU6); assay: Whole-cell cyclase Flashplate cAMP assay, RUP43-transfected HEK293 cells; format: cell-based; design: expressed in transfected cells; host or cells: HEK293 cells (ATCC), transient transfection with FuGENE 6
T1 sequence (Q8TDU6 1-330): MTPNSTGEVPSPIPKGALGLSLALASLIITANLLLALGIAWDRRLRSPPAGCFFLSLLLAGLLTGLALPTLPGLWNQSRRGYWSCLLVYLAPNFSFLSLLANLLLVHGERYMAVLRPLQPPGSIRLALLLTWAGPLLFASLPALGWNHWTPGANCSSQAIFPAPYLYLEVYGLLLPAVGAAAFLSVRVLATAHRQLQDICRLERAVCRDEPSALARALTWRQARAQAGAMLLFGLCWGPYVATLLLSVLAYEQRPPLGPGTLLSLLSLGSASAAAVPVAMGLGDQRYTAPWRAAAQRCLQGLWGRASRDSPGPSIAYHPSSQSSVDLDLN
Experimental: as §1, §2, §3

primary human adipocytes = assay: In vitro glucose uptake assay in primary human adipocytes; format: cell-based; conditions: 50 μM for 3 hr
Experimental: (§4) The in vitro glucose uptake assay was carried out as described here.
(§5) KRPH buffer: 5 mM NaHPO4, pH 7.4 (Make KRPH buffer fresh each time) • 20 mM Hepes, pH 7.4 • 1 mM MgSO4 • 1 mM CaCl2 • 136 mM NaCl • 4.7 mM KCl • 1% BSA
(§6) For each well, add 1 μl containing 1 μCi [^3H]-2-DOG and 1 μl cold stock 2-DOG and 2 ml KRPH.
(§7) Use CytoB at 10 μM final to block carrier-mediated uptake. Also use this concentration at the end to stop the reaction. The stop buffer is PBS plus 10 μm CytoB (“PBS”).
(§8) 1. Starve cells for at least 2 hrs.
(§9) 2. Wash cells 2 times with KRPH buffer and add 2 mls of KRPH to the well.
(§10) 3. Treat cells with insulin and/or with test compound, or with vehicle (Control), for 20 min.
(§11) 4. After 20 min, aspirate the buffer from the well and immediately add 1 ml of KRPH buffer plus 2-DOG. For CytoB-treated cells, add CytoB 5 min before uptake assay.
(§12) 5. After 4 min, aspirate the buffer from the well and add 3 mls of cold PBS. After completing the assay, wash the cells in each well 2 times with cold PBS. Aspirate the Stop PBS completely, and then add 700 ul of 1% Triton X. Place in 37° C. incubator for 30 min.
(§13) 6. Count CPM in total lysate. Calculate CPM/well.
(§14) Subtract the CytoB value from the value obtained for each of cells treated with insulin and/or with test compound and cells treated with vehicle (Control).
Human preadipocytes (Cambrex) were differentiated into adipocytes. The differentiated primary human adipocytes were treated with or without 50 μM Compound 2 for 3 hr in serum-free medium. The human adipocytes were then washed with fresh KRPH buffer twice and treated with or without 100 nM insulin for 20 min. After treatment with or without insulin, glucose uptake was determined according to Example 17.

endogenous human RUP43 [3] = target: T1, endogenous human RUP43; assay: Melanophore assay; format: cell-based; design: expressed in transfected cells; host or cells: melanophores (skin cells of lower vertebrates), transfected by electroporation
Text: Melanophores are skin cells found in lower vertebrates. They contain pigmented organelles termed melanosomes. Melanophores are able to redistribute these melanosomes along a microtubule network upon G-protein coupled receptor (GPCR) activation. The result of this pigment movement is an apparent lightening or darkening of the cells. In melanophores, the decreased levels of intracellular cAMP that result from activation of a […] receptor cause melanosomes to migrate to the center of the cell, resulting in a dramatic lightening in color. If cAMP levels are then raised, following activation of a Gs-coupled receptor, the melanosomes are re-dispersed and the cells appear dark again. The increased levels of diacylglycerol that result from activation of Gq-coupled receptors can also induce this re-dispersion. In addition, the technology is also suited to the study of certain receptor tyrosine kinases. The response of the melanophores takes place within minutes of receptor activation and results in a simple, robust color change. The response can be easily detected using a conventional absorbance microplate reader or a modest video imaging system. Unlike other skin cells, the melanophores derive from the neural crest and appear to express a full complement of signaling proteins. In particular, the cells express an extremely wide range of G-proteins and so are able to functionally express almost all GPCRs.
Melanophores can be utilized to identify compounds, including natural ligands, against GPCRs. This method can be conducted by introducing test cells of a pigment cell line capable of dispersing or aggregating their pigment in response to a specific stimulus and expressing an exogenous clone coding for the GCPR. A stimulant, e.g., melatonin, sets an initial state of pigment disposition wherein the pigment is aggregated within the test cells if activation of the GPCR induces pigment dispersion. […] The test cells are then contacted with chemical compounds, and it is determined whether the pigment disposition in the cells changed from the initial state of pigment disposition. […]

[4] = system: primary human skeletal muscle cells; assay: In vitro glucose uptake assay in primary human skeletal muscle cells; format: cell-based
Experimental: as §4, §5, §6, §7, §8, §9, §10, §11, §12, §13, §14
Primary human skeletal muscle cells obtained from Cambrex were grown to 50% confluence and then differentiated on culture with inducing medium for 5 to 7 days. The differentiated primary human skeletal muscle cells were then transferred to growth medium for 7 to 10 days.
Differentiated human skeletal muscle cells were treated with or without various concentrations of Compound 2 in serum-free medium for 3 hr. After treatment with or without Compound 2, the cells were washed twice with fresh KRPH buffer. […] After treatment with or without insulin, glucose uptake was determined according to Example 17. […]
Differentiated human skeletal muscle cells were treated with 50 μM Compound 2 for various time periods. At the end of each treatment period, glucose uptake was determined according to Example 17.

rat L6 myoblast cells = assay: In vitro glucose uptake assay in L6 myoblast cells; format: cell-based
Experimental: as §4, §5, §6, §7, §8, §9, §10, §11, §12, §13, §14
Rat skeletal muscle L6 myoblast cells were obtained from ATCC and grown in 24-well plates to confluence.
Confluent L6 cells were treated with or without various concentrations of Compound 2 in serum-free medium for 3 hr. The L6 cells were then washed twice with KRPH buffer. L6 cells which had been treated with Compound 2 were incubated with KRPH buffer for 20 min; L6 cells which had not been treated with Compound 2 were treated with 10 nM or 100 nM insulin for 20 min. After treatment with or without insulin, glucose uptake was determined according to Example 17. […] As skeletal muscle cells are responsible for 80% of glucose disposal in vivo, the results obtained indicate that RUP43 agonist is an attractive candidate for providing better glucose disposal in vivo than does insulin.
Confluent L6 myoblast cells were treated with 50 μM Compound 2 for various times. At the end of each treatment period, glucose uptake was determined according to Example 17.
Confluent rat L6 myoblast cells were treated with or without 50 μM Compound 2 for 3 hr in serum-free medium. The L6 cells were then washed twice with fresh KRPH buffer. The L6 cells were then treated with or without 100 nM insulin for 20 min. After treatment with or without insulin, glucose uptake was determined according to Example 17. […] The results further indicate that RUP43 agonist can increase insulin efficacy, thereby lowering the concentration of insulin required to achieve maximal glucose uptake. […]

mouse 3T3L1 adipocytes = assay: In vitro glucose uptake assay in 3T3L1 adipocytes; format: cell-based
Experimental: as §4, §5, §6, §7, §8, §9, §10, §11
5. After 4 min, aspirate the buffer from the well and add 3 mls of cold PBS. After completing the assay, wash the cells in each well 2 times with cold PBS. […]
Differentiated mouse 3T3L1 adipocytes were treated with 50 μM Compound 2 for various times, after which glucose uptake was determined according to Example 17.
Differentiated mouse 3T3L1 adipocytes were treated with (“Compound 2”) or without (“Control”) Compound 2 in serum-free medium for 3 hr. […] After treatment with insulin, glucose uptake was determined according to Example 17.

[5] = various concentrations 3 hr vs 10 nM or 100 nM insulin 20 min

Row | agonist of RUP43 (identification) (endogenous human RUP43 [2]; whole-cell cAMP, HEK293 transfected with endogenous human RUP43) | agonist of RUP43 (identification) (endogenous human RUP43 [3]; melanophore technology) | EC50 (endogenous human RUP43 [3]; melanophores transfected with endogenous human RUP43, 100 uM-51.2 pM, one hour) [nM] | Curve height (endogenous human RUP43 [3]; percent control response vs positive control wells (200) and negative control wells (100)) | Compound | intracellular cAMP [1] | intracellular cAMP (endogenous human RUP43 [2]; HEK293 cells transfected with endogenous human RUP43, serially diluted compound, 1 hour) | level of stimulated glucose uptake compared with insulin (primary human adipocytes; absence of insulin vs 100 nM insulin) | insulin-stimulated glucose uptake (primary human adipocytes; then 100 nM insulin 20 min) | glucose uptake (primary human adipocytes; without insulin) | time course of glucose uptake ([4]; 50 μM for various time periods) | glucose uptake compared with insulin [4, 5] | glucose uptake ([4]; various concentrations for 3 hr, absence of insulin) | insulin-stimulated glucose uptake (rat L6 myoblast cells; 50 μM for 3 hr, then 100 nM insulin 20 min) | time to stimulation of glucose uptake (rat L6 myoblast cells; 50 μM for various times) [min] | glucose uptake compared with insulin (rat L6 myoblast cells; [5]) | glucose uptake (rat L6 myoblast cells; various concentrations for 3 hr, no insulin) | glucose uptake (mouse 3T3L1 adipocytes; 50 μM Compound 2 for various times, no insulin) | insulin-stimulated glucose uptake (mouse 3T3L1 adipocytes; compound 3 hr in serum-free medium, then various concentrations of insulin 20 min)
1 | agonist of RUP43 | – | – | – | CN(C(=O)c1csc(C2CCN(C(=O)Cc3ccccc3Cl)CC2)n1)c1c2c(nn1C)CCCC2 [Compound 1, 2-{1-[2-(2-Chloro-phenyl)-acetyl]-piperidin-4-yl}-thiazole-4-carboxylicacid methyl-(2-methyl-4,5,6,7-tetrahydro-2H-indazol-3-yl)-amide] | not in Mock transfected cells | in a dose dependent manner, led to an increase in intracellular cAMP | – | – | – | – | – | – | – | – | – | – | – | –
2 | – | agonist of endogenous human RUP43 | 212 | approximately 92 % of control | O=C(Cc1ccccc1Cl)N1CCC(c2nc(C(=O)N3CCCc4ccccc43)cs2)CC1 [Compound 2, 2-(2-Chloro-phenyl)-1-{4-[4-(3,4-dihydro-2H-quinoline-1-carbonyl)-thiazol-2-yl]-piperidin-1-yl}-ethanone] | – | – | comparable to the level of insulin-stimulated glucose uptake | enhanced insulin-stimulated glucose uptake | stimulates glucose uptake | rapid stimulation of glucose uptake | more effectively than insulin | efficacious at stimulating glucose uptake; also recorded: stimulates glucose uptake | enhances insulin-stimulated glucose uptake | ≤ 20 | greater glucose uptake in rat L6 myoblast than did insulin | stimulates glucose uptake | stimulates glucose uptake | enhances insulin-stimulated glucose uptake
